The values that follow come from EPA's ToxValDB 9.5 (doi:10.2903/j.efsa.2005.25r).

The test system of data set [1] is Cyprinodon variegatus. The note with it: mortality.
Data set [2] deals with Phasianus sp. Particulars: short-term; duration: 5 days; oral; feed; mortality.
The test system of data set [3] is Hyalella azteca. Particulars: chronic/long-term; duration: 21 days; mortality.
Data set [4] has as its system Rattus norvegicus.
Data set [5] concerns Daphnia magna. Particulars: chronic/long-term; duration: 21 days; growth.
Data set [6] concerns Pontoscolex corethrurus.
Data set [7] concerns Oncorhynchus mykiss. The note with it: chronic/long-term; duration: 28 days; mortality.
The test system of data set [8] is Apis mellifera. Particulars: acute.
The test system of data set [9] is Colinus virginianus.
Data set [10] deals with Coturnix coturnix. The note with it: acute; duration: 5 days; oral; diet; mortality.

Values after ≈ are worked out from the molar mass of the structure shown. Some results are limits rather than exact numbers.

Turning to `CN(C)C(=O)Nc1ccc(Cl)c(Cl)c1` [Diuron], the LC50 is 6.7 µg/mL (≈ 28.7 µM) in data set [1] (acute, duration: 96 hours); over 5000 mg/kg in data set [2]; over 798 mg/kg in [6] (acute, mortality); 346 mg/kg-day in data set [9] (acute, duration: 5 days, oral, diet, mortality); over 5000 mg/kg in [10]. In addition, the NOEC in [1] (chronic/long-term, duration: 32 days) worked out at 1.7 mg/L; in data set [3] it was 0.06 mg/L; in data set [5], 0.096 mg/L; in [6] (chronic/long-term), 14.4 mg/kg; in data set [7] it was 0.41 mg/L; in data set [9] (reproduction developmental), 24.1 mg/kg-day. Moreover, the LD50 in [4] (acute, mortality) is 2000 mg/kg; in data set [9] (acute, duration: 14 days, oral, diet, mortality), 1100 mg/kg. For the same molecule, the no-observed-adverse-effect level (NOAEL) (usually the highest tested level that showed no adverse finding) in data set [4] (chronic) is 80 mg/kg-day; in data set [4] (chronic, duration: 6 months, hematological), 1.6 mg/kg-day; in data set [4] (chronic, duration: 6 months, oral, hematological), 0.66 mg/kg-day. The LOAEL (as a rule, the lowest tested level that showed an adverse finding) in data set [4] (chronic, duration: 2 years, F, hematological) was 1.7 mg/kg-day. The LEL in data set [8] (dermal) was over 100 µg/piece; in data set [8] (oral, unspecified), over 100 µg/piece.
